Where a name gives a salt, the structure may show the parent alone.
Tests used:
female C57BL6 mice = test: Elevated plus maze (with or without restraint stress); type: in vivo, mouse; details: pre-administration before restraint stress; pubertal
Text: Animal subjects. Prepubertal and pubertal female C57BL6 mice (3½-6 weeks old, +/+ and δ^−/−1) were housed in a reverse light:dark cycle (12:12). Both sets of mice were originally supplied by G. Homanics (Univ. of Pittsburgh), and were bred on site, with +/+ mice supplemented from Jackson Laboratories (Bar Harbor, Me.). Initially, age-matched+/+littermates of the δ^−/−were used as controls, but because they were indistinguishable from C57BL6, data from both groups were pooled. Genotyping of the tails verified that mice were homozygous δ^−/−. Some animals (+/+ or δ^−/−) were injected with finasteride (1,(5α)-androstene-4-aza-3-one-N-tert-butyl-17β-carboxaminde, Steraloids, 50 mg kg^, −1 intraperitoneally, 3 days) to block THP synthesis^2 or oil vehicle on a daily basis 1-1.5 h before dark onset, when THP levels increase, and tested 30 min. later. The onset of puberty was determined by vaginal opening, and pubertal mice tested on the day of first metestrus, identified by vaginal morphology and verification of first estrus the previous day. Mice with vaginal smears representative of diestrus were excluded from the study. Individual stages of puberty were not distinguished, and pre-pubertal mice were used before any visible signs of pubertal development, assessed by development of the peri-vaginal area. In some cases, pubertal mice were injected with replacement THP (3α-OH-5β-pregnan-20-one, 10 mg kg^−1, intraperitoneally in oil) for three days before testing. Procedures were in accordance with the SUNY Downstate Institutional Animal Care and Use Committee.
Restraint stress. In order to test the effect stress-induced release of THP^6,46,47 on anxiety, mice were restrained in a clear Plexiglas tube-type holder (Harvard Apparatus) for 45 min. and tested 20 min. later on the elevated plus maze (see Supplementary Methods). Open arm time was evaluated for 5 min. on the elevated plus maze. A decrease in open arm time reflects an increase in anxiety^18. In all cases, the results from each mouse tested after restraint was expressed relative to the averaged results from the sham controls, which were identical to the stressed animals (age, genotype, sex, drug-injected), except that they were not subjected to restraint stress.
Elevated plus maze. Testing rodent behavior on the elevated plus maze is an established animal model of anxiety^31. The plus maze consists of four 8×35 cm arms at 90° angles, elevated 57 cm above the floor. Two arms are enclosed by 33 cm walls, and two arms have no walls (“open arms”). […] Each animal was initially acclimated to the room for 30 min-1 h before being placed in the center of the maze, and exploratory activity recorded for 5 min. […]

α4β2δ GABAA receptors = test: Whole cell patch clamp of GABA-gated current, recombinant receptors in HEK-293 cells; type: cell-based, human or mouse α4, rat β2, human δ
Text: (§1) Recombinant receptors: Transfection—Plasmids obtained from S. Vicini (rat α1, α5, β2, β3 and γ2), P. Whiting (human α4 and δ) and N. L. Harrison (mouse α4) were propagated in E coli DH5α and prepared using Qiagen Maxi- or Midi-prep kits. (Rat, mouse and human α1, β2, β3 and γ2 subunits are identical or nearly identical.) All receptors were transfected at a 1:1:1 ratio, except α1β2γ2 (1:1:5)^12, α4βδ (5:1:5)^13 and α4β2γ2 (5:1:1). HEK-293 cells were maintained in medium (DMEM:Ham's F-12 1:1) supplemented with 10% fetal calf serum at 37° C. in a humid 5% CO2 atmosphere. Cells were transfected using calcium phosphate or Polyfect (Qiagen) and co-transfected with enhanced green fluorescent protein (ratio of DNA to eGFP was 6:1 or 10:1 depending on the DNA concentration) for visualization. α4-containing GABAA receptors required 2-3 d for maximal levels of expression; all other receptors were recorded 1-2 d after transfection. Because mouse α4 and human α4-containing receptors yielded the same results, the currents were averaged together.
Whole cell patch clamp recording—GABA-gated currents were recorded at room temperature (20-22° C.) at a holding potential of −50 mV^14. The pipet solution contained (in mM): N-methyl-D-glucamine chloride 120, Cs4BAPTA 5 (Calbiochem), Mg-ATP 5, and an ATP regeneration system (20 mM Tris phosphocreatine and creatine kinase). Internal [Cl^−] or the holding potential were varied, using gluconate as the anion, to alter the direction of Cl^− flow, corrected for the junction potential. In some cases, current-voltage curves were constructed using the peak current response to agonist or agonist+THP across a range of holding potentials (−60 to +60) applied as 10 mV steps, or as a voltage ramp. […] Traces are presented as the average of 3 traces after subtraction of the leak current. […] This rapid application technique yields currents with a rapid rise phase. THP was also bath applied 30 s prior to tests of steroid effects. Currents were recorded using an Axopatch 1D amplifier (Axon Instruments) filtered at 2 kHz (four-pole Bessel filter) and detected at 10 kHz (pClamp 5.1). Analysis of peak current was accomplished with pClamp 9.2 and Origin software (Microcal).
Following the recording, the patch was blown out, and the open tip potential recorded using solutions with a 5% difference in NaCl osmolarity to verify the approximate solution exchange time. The time constant (τ) for desensitization was approximated using non-linear curve fitting routines with Levenburg-Marquardt algorithms (Origin software, Microcal). Goodness of fit was determined by minimizing the sum of the squares of deviations of the theoretical curve from the experimental points.
Recombinant receptors: Human embryonic kidney (HEK)-293 cells were transfected with α4 β2δ or other indicated subunit combinations (see Supplementary Methods) and co-transfected with enhanced green fluorescent protein for visualization. GABA-gated currents were recorded at room temperature (20-22° C.) at a holding potential of −50 mV^17 using a pipet solution containing 120 mM: N-methyl-D-glucamine chloride. Internal [Cl^−] or the holding potential were varied to alter the direction of Cl^− flow. […] Currents were recorded using an Axopatch 1D amplifier (Axon Instruments) filtered at 2 kHz (four-pole Bessel filter), detected at 10 kHz and analyzed with pClamp 9.2. Desensitization rate was determined using non-linear curve-fitting routines (Origin, Microcal; see next section).
Further Studies with Recombinant receptors: Transfection—Plasmids obtained from S. Vicini (rat α1, α5, β2, β3 and y2), P. Whiting (human α4 and 6) and N. L. Harrison (mouse α4) were propagated in E coli DH5α and prepared using Qiagen Maxi- or Midi-prep kits. (Rat, mouse and human α1, β2, β3 and γ2 subunits are identical or nearly identical.) All receptors were transfected at a 1:1:1 ratio, except a132γ2 (1:1:5)^12, α4β28 (5:1:5)^13 and α4β2γ2 (5:1:1). […]

hippocampal THP levels = test: Radioimmunoassay of hippocampal 3α,5α-THP levels; type: in vivo, mouse; details: administration of 5α-reductase blocker
Text: Animal subjects. Prepubertal and pubertal female C57BL6 mice (3½-6 weeks old, +/+ and δ^−/−1) were housed in a reverse light:dark cycle (12:12). Both sets of mice were originally supplied by G. Homanics (Univ. of Pittsburgh), and were bred on site, with +/+ mice supplemented from Jackson Laboratories (Bar Harbor, Me.). Initially, age-matched+/+littermates of the δ^−/−were used as controls, but because they were indistinguishable from C57BL6, data from both groups were pooled. Genotyping of the tails verified that mice were homozygous δ^−/−. […] The onset of puberty was determined by vaginal opening, and pubertal mice tested on the day of first metestrus, identified by vaginal morphology and verification of first estrus the previous day. […] Individual stages of puberty were not distinguished, and pre-pubertal mice were used before any visible signs of pubertal development, assessed by development of the peri-vaginal area. […]
Radioimmunoassay for 3α,5α-THP. Hippocampal levels of 3α,5α-THP were assessed by radioimmunoassay (RIA) by C. […] Sample tube concentrations were calculated using the logit-log method^6, interpolation of the standards, and correction for recovery. […]

α4β2γ2 receptors = test: Whole cell patch clamp of GABA-gated current, recombinant receptors in HEK-293 cells; type: cell-based, human or mouse α4, rat β2, rat γ2
Text: as §1
Whole cell patch clamp recording—GABA-gated currents were recorded at room temperature (20-22° C.) at a holding potential of −50 mV^14. […] Currents were recorded using an Axopatch 1D amplifier (Axon Instruments) filtered at 2 kHz (four-pole Bessel filter) and detected at 10 kHz (pClamp 5.1). […]

[1] = tested on: CA1 hippocampal pyramidal cells (α4βδ receptors); test: La3+-sensitive gaboxadol-induced current, whole cell patch clamp, hippocampal slice; type: cell-based, mouse; details: 30 μM GBX, after puberty or THP Wd
[2] = tested on: CA1 hippocampal pyramidal cells; test: Input resistance and neuronal excitability (spiking), hippocampal slice; type: cell-based, mouse; details: puberty
Method: Tonic current was recorded as the difference current produced by 120 μM gabazine, which blocks all GABAA receptor, before and after 30 nM THP^24. Current was also recorded in response to 2 s 10 mV steps in the holding potential, and current-voltage curves generated to the steady-state current. Because fast-inactivating conductances would not be excluded in a voltage ramp, stable steady-state current responses were used instead to construct the current-voltage (IV) curves. Input resistance (Rm) was calculated from the current response to voltage steps from −60 to −40 mV using Ohm's Law. The reversal potential was determined by the […] of the IV curve (−90 to −10 mV). The gabazine-sensitive slope conductance was assessed as the slope of the linear portion of outward current plot recorded before and after THP after subtraction of the gabazine-generated current (in the presence of L-655,708 to block α5-GABAA receptors). Only data with a stable baseline and pipet access resistance <10 MΩ were included in the analysis.
Effects of THP on cell excitability were tested by monitoring spiking using cell attached patch recordings^31 in voltage clamp mode (−40 mV holding potential, 150 mM NaCl intrapipet solution) or assessing the current threshold to spiking and spike frequency in current clamp mode (0.01-0.3 nA steps, starting from −1 nA, 1 s duration). (More complete details are supplied in the Supplementary Methods.)

[3] = tested on: CA1 hippocampal pyramidal cell dendrites; test: Tight-seal cell-attached current-clamp recording during dendritic agonist application; type: cell-based, mouse; details: 5 μM; stratum radiatum; pubertal
Method: Tonic current was recorded as the difference current produced by the selective GABAA receptor antagonist gabazine (120 μM) before and after 30 nM THP^4,29, while gramicidin perforated-patch recordings^33 were accomplished using 140 mM KCl plus 25 μg ml^−1 gramicidin in the pipet solution, recorded when the access resistance dropped to <60 MΩ after tight seal formation. Estimates of the direction of Cl^− current were obtained by recording using tight-seal cell-attached techniques^31 (>1 GΩ seal) in current clamp mode. A downward deflection signified outward (i.e., hyperpolarizing) Cl^− current.
To determine whether THP inhibition of GABAergic currents at puberty was a physiological phenomenon, we initially verified that GABA-gated currents were outward in CA1 hippocampal pyramidal cell dendrites at the onset of puberty. […] The voltage change was recorded in current clamp mode from the soma using tight-seal cell attached techniques at a holding current of 0 pA^31.

CC(=O)[C@H]1CC[C@H]2[C@@H]3CC[C@H]4C[C@@H](O)CC[C@]4(C)[C@H]3CC[C@]12C (single isomer, unassigned; isomer 3) [3β-OH isomer, 3βOH-5α[β]-pregnan-20-one]
effect on stress-induced increase in anxiety (female C57BL6 mice): prevented the stress-induced increase in anxiety | inhibitory effect on outward GABA-gated current (α4β2δ GABAA receptors; isomer selectivity, FIG. 1e): selective for the active 3α-OH isomer, but not the inactive 3,3-OH isomer

CC(C)(C)NC(=O)[C@H]1CC[C@H]2[C@@H]3CC[C@H]4NC(=O)C=C[C@]4(C)[C@H]3CC[C@]12C [5α-reductase blocker, 1,(5α)-androstene-4-aza-3-one-N-tert-butyl-17β-carboxaminde]
decline in hippocampal THP levels (hippocampal THP levels): 58±10%

NCCCC(=O)O [GABA]
GABA EC20 (α4β2γ2 receptors): 5000 nM | GABA EC20 (α4β2δ GABAA receptors): […] | GABA EC75 (α4β2δ GABAA receptors): […]

[La+3] [La^3+]
reduction of GBX-generated current ([1]; 300 μM La3+): 50-70%

CCN(c1ccccc1)c1cc(=NC)n(C)c(C)n1.Cl [ZD 7288]
effect of Ih blockade on excitatory effect of THP ([2]; 20 μM ZD 7288): did not prevent the excitatory effect of THP

COc1ccc(-c2ccc(=N)n(CCCC(=O)O)n2)cc1 [gabazine, 6-imino-3-(4-methyoxyphenyl)-1 (6H)-pyridazinebutanoic acid hydrobromide]
effect on THP-induced increase of input resistance ([2]; 120 μM gabazine pre-applied): prevented

Oc1noc2c1CCNC2 [gaboxadol, 4,5,6,7-Tetrahydroisoxazolo[5,4-c]pyridin-3-ol]
GBX-generated current vs pre-pubertal slices [1]: significantly larger current | change in membrane potential on dendritic application [3]: downward shift of the membrane potential
